This note sets out measurements from patent publication US20250230154A1, “COMPOUND HAVING SHP2 PROTEIN DEGRADING ACTIVITY, AND MEDICAL USES THEREOF” (UBIX THERAPEUTICS, INC., priority 2021, published 2025).

The target in assay [1] is T1, SHP2 protein (Homo sapiens, UniProt Q06124).
T1 sequence (Q06124 1-593): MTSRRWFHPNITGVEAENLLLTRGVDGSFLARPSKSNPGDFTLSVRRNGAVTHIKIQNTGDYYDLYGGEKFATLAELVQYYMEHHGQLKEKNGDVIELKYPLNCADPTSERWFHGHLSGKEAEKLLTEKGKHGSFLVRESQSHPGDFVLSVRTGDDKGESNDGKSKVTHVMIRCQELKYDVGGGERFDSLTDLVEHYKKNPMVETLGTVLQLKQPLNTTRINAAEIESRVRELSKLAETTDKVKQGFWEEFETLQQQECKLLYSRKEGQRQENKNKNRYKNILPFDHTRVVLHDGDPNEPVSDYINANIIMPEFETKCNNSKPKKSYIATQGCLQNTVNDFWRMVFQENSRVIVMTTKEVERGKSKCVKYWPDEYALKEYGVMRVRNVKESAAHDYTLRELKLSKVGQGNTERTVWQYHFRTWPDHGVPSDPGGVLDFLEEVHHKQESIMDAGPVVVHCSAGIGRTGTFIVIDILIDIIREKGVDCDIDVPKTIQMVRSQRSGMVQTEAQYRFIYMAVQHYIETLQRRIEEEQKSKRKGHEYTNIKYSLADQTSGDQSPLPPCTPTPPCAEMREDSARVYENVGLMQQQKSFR
The assay can be described thus: Measurement of SHP2 protein degradation in KYSE-520 cells (western blotting). Type of assay: cell-based. Also noted: endogenous in cells. Particulars: 24 hours. Here is the method:
Experimental Example 1: Measurement of SHP2 Protein Degradation in KYSE-520 Cells
KYSE-520 cells were treated with the synthesized Example compound, and the amount of SHP2 protein present in the cells was measured using western blotting detection. The protocol of the experiment conducted using KYSE-520 cells was as follows:
[Culture] KYSE-520 cells resuspended in RPMI1640 MEDIUM (Hyclone, SH30027.01) containing 5% FBS (Hyclone, SV30207.02) and 1% Penicillin-streptomycin (Welgene, LS 202-02) were seeded at a density of 2.5×10^5/well in a 6-well plate in an amount of 2 ml each and incubated for 2 days.
[Compound treatment] […] After 24 hours, cells were harvested. For the negative control group, DMSO diluted 1/10 to the media (3 mL DMSO+27 mL media) was added.
[Cell Lysis and Protein Quantification] Lysis buffer was prepared as follows: […] of RIPA buffer (Biosesang, RC2038-050-00)+0.5 mM PMSF (SIGMA, P7626)+1× Protease/Phosphatase Inhibitor (Cell signaling, 5872S) per well was added and placed on ice for 30 minutes (vortexing at 0 and 30 minutes, respectively). After sonication process (10 seconds pulse, 30 seconds rest, 5 cycles, 70% amplification), centrifugation (15000 g, 15 min, 4° C.) was performed, and then only the supernatant was taken and transferred to a new microtube. The sample was diluted ¼ with RIPA buffer in a 96-well plate, and mixed with A:B=50:1 of the BCA Protein Assay Kit (iNtRON, 21071). […] each of the mixture was left at 37° C. for 30 minutes, and cooled for 10 minutes. Then, absorbance was measured at 562 nm with the SYNERGY H1 microplate reader from BioTek. After making a sample by quantifying the protein with the measured value, boiling was performed at 70° C. for 10 minutes. At this time, the sample buffer used was a mixture of NuPAGE or Bolt 4× sample buffer (Invitrogen) and each 10× sample reducing agent according to the gel to be used, and RIPA buffer was used for protein dilution.
[Western blotting detection method] The same amount of sample was loaded on NuPAGE or Bolt Bis-tris 4-12% gradient gel and run (200 V, 35 minutes). It was transferred to 0.2 mm NC membrane with Trans-blot Turbo (BIO-RAD) (1.3 A constant, 25 V limit, 15 minutes). Blocking was performed at room temperature for 1 hour with Skim milk or Intercept Blocking Buffer (LI-COR, 927-60001):0.1% TBST=1:1. Anti SHPTP2 Mouse (1:500 in 5% Skim milk/TBST, size: 70 kDa, Santacruz sc-7384) was incubated overnight at 4° C., and Anti GAPDH Rabbit (1:2,000 in 5% BSA/0.2% TBST, size: 37 kDa, CST #2118) was incubated at room temperature for 1 hour 30 minutes or 3 hours. It was washed 3 times for 5 minutes each with 0.2% TBST washing buffer. Secondary antibody Anti-Rabbit IgG (1:5,000 in 5% Skim milk/0.2% TBST, CST), and IRDye® 680RD Goat anti-Rabbit IgG Secondary Antibody (1:10,000 in 5% BSA/0.2% TBST, LI-COR 926-68071) were incubated for 45 minutes on a rocker at room temperature. It was washed 5 times for 5 minutes each with 0.2% TBST washing buffer and detected with LI-COR's Odyssey. At this time, SHPTP2 was detected using SuperSignal West Pico PLUS Chemiluminescent Substrate, and house-keeping genes were also detected.
In the results of Table 4 below, Compounds 1-7, 13-19, and 21-26 are results in KYSE-520 cells, and the others are results in MV-4-11 cells.
(In general: Immunoblotting shows a protein as a band on a membrane.)

Assay [2] has as its target T1, SHP2 protein. The assay can be described thus: Measurement of SHP2 protein degradation in MV-4-11 cells (western blotting). It counts as cell-based. Also noted: endogenous in cells; host or cells: MV-4-11. Particulars: MV-4-11 cells, 24 hours. In short, it runs like this:
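SHP2 protein levels were assessed by western blotting in MV-4-11 cells after a 24 hour compound treatment. Lysates were sonicated, centrifuged, normalized by BCA assay at 562 nm, run on Bis-tris 4-12% gels, transferred to NC membrane, probed with anti-SHPTP2 (70 kDa) and anti-GAPDH (37 kDa) antibodies, and detected on LI-COR Odyssey.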

The structures appear in SMILES notation.

`Cc1ncsc1-c1ccc(CNC(=O)[C@@H]2C[C@@H](O)CN2C(=O)[C@@H](NC(=O)C2(F)CC2)C(C)(C)C)c(OCCCCCCCCN2CCC(C(=O)Nc3cccc(Sc4cnc(N5CCC(C)(CN)CC5)cn4)c3Cl)CC2)c1` [Example 4, N-(3-((5-(4-(aminomethyl)-4-methylpiperidin-1-yl)pyrazin-2-yl)thio)-2-chlorophenyl)-1-(8-(2-(((2S,4R)-1-((S)-2-(1-fluorocyclopropane-1-carboxamido)-3,3-dimethylbutanoyl)-4-hydroxypyrrolidine-2-carboxamido)methyl)-5-(4-methylthiazol-5-yl)phenoxy)octyl)piperidine-4-carboxamide]: in assay [1], the “SHP2 degradation (%) 10 nM” value was determined as 4.1%, the “SHP2 degradation (%) 100 nM” value was found to be 60.7% and the “SHP2 degradation (%) 1000 nM” value is recorded as 90.7%.

`Cc1ncsc1-c1ccc(CNC(=O)[C@@H]2C[C@@H](O)CN2C(=O)[C@@H](NC(=O)C2(F)CC2)C(C)(C)C)c(OCCCCN2CCC(CCCC(=O)Nc3cccc(Sc4cnc(N5CCC(C)(CN)CC5)cn4)c3Cl)CC2)c1` [Example 17, (2S,4R)—N-(2-(4-(4-(4-((3-((5-(4-(aminomethyl)-4-methylpiperidin-1-yl)pyrazin-2-yl)thio)-2-chlorophenyl)amino)-4-oxobutyl)piperidin-1-yl)butoxy)-4-(4-methylthiazol-5-yl)benzyl)-1-((S)-2-(1-fluorocyclopropane-1-carboxamido)-3,3-dimethylbutanoyl)-4-hydroxypyrrolidine-2-carboxamide]: in assay [1], the “SHP2 degradation (%) 100 nM” value was found to be 71.8% and the “SHP2 degradation (%) 1000 nM” value was determined as 94.9%.

`Cc1ncsc1-c1ccc(CNC(=O)[C@@H]2C[C@@H](O)CN2C(=O)[C@@H](NC(=O)C2(F)CC2)C(C)(C)C)c(OCCN2CCC(CCCC(=O)Nc3cccc(Sc4cnc(N5CCC(C)(CN)CC5)cn4)c3Cl)CC2)c1` [Example 16, (2S,4R)—N-(2-(2-(4-(4-((3-((5-(4-(aminomethyl)-4-methylpiperidin-1-yl)pyrazin-2-yl)thio)-2-chlorophenyl)amino)-4-oxobutyl)piperidin-1-yl)ethoxy)-4-(4-methylthiazol-5-yl)benzyl)-1-((S)-2-(1-fluorocyclopropane-1-carboxamido)-3,3-dimethylbutanoyl)-4-hydroxypyrrolidine-2-carboxamide]: in assay [1], the “SHP2 degradation (%) 10 nM” value was −24.3%, the “SHP2 degradation (%) 100 nM” value was 45.1% and the “SHP2 degradation (%) 1000 nM” value was determined as 84.0%.

`Cc1ncsc1-c1ccc(CNC(=O)[C@@H]2C[C@@H](O)CN2C(=O)[C@@H](NC(=O)C2(F)CC2)C(C)(C)C)c(OCCCCCCN2CCC(C(=O)Nc3cccc(Sc4cnc(N5CCC(C)(CN)CC5)cn4)c3Cl)CC2)c1` [Example 3, N-(3-((5-(4-(aminomethyl)-4-methylpiperidin-1-yl)pyrazin-2-yl)thio)-2-chlorophenyl)-1-(6-(2-(((2S,4R)-1-((S)-2-(1-fluorocyclopropane-1-carboxamido)-3,3-dimethylbutanoyl)-4-hydroxypyrrolidine-2-carboxamido)methyl)-5-(4-methylthiazol-5-yl)phenoxy)hexyl)piperidine-4-carboxamide]: in assay [1], the “SHP2 degradation (%) 10 nM” value is −15.6%, the “SHP2 degradation (%) 100 nM” value was 48.8% and the “SHP2 degradation (%) 1000 nM” value amounted to 84.0%.

As to `Cc1ncsc1-c1ccc(CNC(=O)[C@@H]2C[C@@H](O)CN2C(=O)[C@@H](NC(=O)C2(F)CC2)C(C)(C)C)c(OCCN2CCN(C(=O)CC(=O)Nc3cccc(Sc4cnc(N5CCC(C)(CN)CC5)cn4)c3Cl)C[C@H]2C(=O)O)c1` [Example 69, (S)-4-(3-((3-((5-(4-(aminomethyl)-4-methylpiperidin-1-yl)pyrazin-2-yl)thio)-2-chlorophenyl)amino)-3-oxopropanoyl)-1-(2-(2-(((2S,4R)-1-((S)-2-(1-fluorocyclopropane-1-carboxamido)-3,3-dimethylbutanoyl)-4-hydroxypyrrolidine-2-carboxamido)methyl)-5-(4-methylthiazol-5-yl)phenoxy)ethyl)piperazine-2-carboxylic Acid], in assay [2], the “SHP2 degradation (%) 10 nM” value amounted to 20% and the “SHP2 degradation (%) 100 nM” value was determined as 81.9%.

On to `Cc1ncsc1-c1ccc(CNC(=O)[C@@H]2C[C@@H](O)CN2C(=O)[C@@H](NC(=O)C2(F)CC2)C(C)(C)C)c(OCCN2CCN(C(=O)CC(=O)Nc3cccc(Sc4cnc(N5CCC(C)(CN)CC5)cn4)c3Cl)C[C@@H]2C(=O)O)c1` [Example 70, (R)-4-(3-((3-((5-(4-(aminomethyl)-4-methylpiperidin-1-yl)pyrazin-2-yl)thio)-2-chlorophenyl)amino)-3-oxopropanoyl)-1-(2-(2-(((2S,4R)-1-((S)-2-(1-fluorocyclopropane-1-carboxamido)-3,3-dimethylbutanoyl)-4-hydroxypyrrolidine-2-carboxamido)methyl)-5-(4-methylthiazol-5-yl)phenoxy)ethyl)piperazine-2-carboxylic Acid], for which, in assay [2], the “SHP2 degradation (%) 10 nM” value stood at 14.4% and the “SHP2 degradation (%) 100 nM” value is recorded as 59.2%.

Turning to `Cc1ncsc1-c1ccc(CNC(=O)[C@@H]2C[C@@H](O)CN2C(=O)[C@@H](NC(=O)C2(F)CC2)C(C)(C)C)c(OC2CC3(CCN(C(=O)CC(=O)Nc4cccc(Sc5cnc(N6CCC(C)(CN)CC6)cn5)c4Cl)CC3)C2)c1` [Example 50, (2S,4R)—N-(2-((7-(3-((3-((5-(4-(aminomethyl)-4-methylpiperidin-1-yl)pyrazin-2-yl)thio)-2-chlorophenyl)amino)-3-oxopropanoyl)-7-azaspiro[3.5]nonan-2-yl)oxy)-4-(4-methylthiazol-5-yl)benzyl)-1-((S)-2-(1-fluorocyclopropane-1-carboxamido)-3,3-dimethylbutanoyl)-4-hydroxypyrrolidine-2-carboxamide], in assay [2], the “SHP2 degradation (%) 10 nM” value came to 91.5% and the “SHP2 degradation (%) 100 nM” value amounted to 98.4%.
